The source of these data is PubChem BioAssay AID1645868 (Buhrlage Lab, Dana-Farber Cancer Institute and Novartis …, 2021).

Active and inactive are the calls of the source.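 Rule for the calls: active = maximal percent inhibition of the deubiquitinase OTUD3 of at least 30% across the tested doses; inactive = the rest.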 Where only a bound is given, the exact number is not on record here.

Sequence of OTU domain-containing protein 3 (Homo sapiens) (Q5T2D3 whole entry, looked up, the tested form may be a part): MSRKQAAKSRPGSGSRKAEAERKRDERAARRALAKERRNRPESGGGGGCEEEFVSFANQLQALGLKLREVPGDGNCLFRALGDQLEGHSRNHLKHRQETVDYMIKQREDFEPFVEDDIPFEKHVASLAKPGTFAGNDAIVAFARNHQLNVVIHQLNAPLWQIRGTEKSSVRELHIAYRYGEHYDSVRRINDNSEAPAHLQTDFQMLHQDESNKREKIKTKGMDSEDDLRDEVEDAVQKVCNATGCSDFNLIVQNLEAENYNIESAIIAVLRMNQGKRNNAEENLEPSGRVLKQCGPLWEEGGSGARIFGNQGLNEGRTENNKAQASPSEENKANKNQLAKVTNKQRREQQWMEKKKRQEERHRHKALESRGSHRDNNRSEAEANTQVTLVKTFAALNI

The test addresses OTU domain-containing protein 3 (Homo sapiens) (UniProt Q5T2D3). Description: Validation of screening hits, potency titration, in vitro enzymatic, OTU domain-containing protein 3 DUB inhibitors (AID 1645868). The note with it: purified OTUD3, ubiquitin-rhodamine cleavage fluorescence, 2 h.
Regarding `N#Cc1ccccc1Cn1c(=O)n(CCCCC(=O)NCc2ccco2)c(=O)c2ccccc21`, the IC50 was 43.5 µM.

For `Cc1ccc(S(=O)(=O)N2CCCCC2)cc1NC(=O)Cc1cccc(F)c1`, the IC50 is > 50 µM (inactive). In the case of `COc1ccc(C2CC(c3ccccc3)N(C(=O)C3CC3)c3ncnn32)cc1` (stereo not given) it was > 50 µM (inactive); in that of `O=C(CSc1ncnc2c1oc1ccccc12)Nc1ccc2c(c1)OCCO2`, 34.5 µM.

As for `Cc1ccc(/C=C/C(=O)Nc2ccc3c(c2)OCCO3)cc1`, the IC50 is > 50 µM (inactive). In the case of `Cc1ccc(C(=O)Nc2nc3n(n2)C(c2ccccc2)CC(=O)N3)cc1` (stereo not given) it was 28.6 µM. In the case of `Cc1ccccc1Cc1nc(-c2ccc(=O)[nH]c2)no1` it was > 50 µM (inactive). In the case of `COc1ccc(NC(=O)c2ccc(Nc3nnc(C)c4ccccc34)cc2)cc1` it was > 50 µM (inactive). On to `Cc1cc(-c2nnc(SCC(=O)Nc3ccc(Br)c(C)c3)n2N)n[nH]1`, for which the IC50 is 17.3 µM. In the case of `COc1cccc(NC(=O)C2Cn3ccnc3C3(CCN(C(C)=O)CC3)O2)c1` (stereo not given) it was > 50 µM (inactive); in that of `O=C(O)c1ccccc1C(=O)Nc1ccc(SC(C(=O)Nc2cccc(Cl)c2)c2ccccc2)cc1` (stereo not given), 33.6 µM. In the case of `Cc1ccc(-c2c(C(=O)Nc3ccc(S(N)(=O)=O)cc3)oc(=O)c3ccccc23)cc1` it was 35 µM; in that of `COC1C(O)=C2C(=O)O/C(C)=C/C=C/C=C/C=C/CC(c3ccccc3)NC(=O)/C=C/C=C/C=C\C=C\C2(C)C1O` (stereo not given), > 50 µM (inactive). For the compound `COc1ccc(OCCn2c(C3CC(=O)N(c4cccc(C)c4)C3)nc3ccccc32)cc1` (stereo not given), the IC50 was 2.42 µM. In the case of `O=C(CNS(=O)(=O)c1ccc(F)cc1)N1CCCC(c2nnc3ccccn23)C1` (stereo not given) it was > 50 µM (inactive).

As to `Cc1ccccc1NC(=O)Cn1cc(-c2nc(C3CC3)no2)ccc1=O`, the IC50 is > 50 µM (inactive).

As to `CCOC(=O)c1cccc(NC(=O)Nc2cccn3nc(C)nc23)c1`, the IC50 is > 50 µM (inactive).

In the case of `COCCCNC(=O)c1ccc(Cn2c(=O)c3ccccc3n(CC(=O)Nc3ccc(OC)cc3)c2=O)cc1`, the IC50 is 28.1 µM.

Consider `O=C(Nc1ccc2ccccc2n1)c1ccc(Cl)cc1`, for which the IC50 is 28.8 µM. As for `Cc1cccc(C(=O)N2CCN3Cc4ccccc4N(C)CC3C2)c1` (stereo not given), the IC50 is > 50 µM (inactive). For `CCCCc1nc2sc3c(SCC(=O)NCc4ccccc4)ncnc3c2c2c1CCC2`, the IC50 is > 50 µM (inactive). In the case of `CCCCCCCCCC(CCCCCCCCCC(=O)O)O[C@H]1O[C@@H](COC(C)=O)[C@H](O)[C@@H](O)[C@H]1OC(=O)CC(=O)O` (stereo not given in full) it was 22.5 µM; in that of `O=C(COC(=O)CCc1ccc(S(=O)(=O)N2CCOCC2)cc1)Nc1ccc2c(c1)OCCO2`, > 50 µM (inactive). With `O=C(CNC(=O)c1cc2ccccc2o1)Nc1ccc2c(c1)OCCO2`, the IC50 is 33.8 µM. In the case of `Cc1sc(-c2ccc(Cl)nc2)nc1OC(=O)c1ccc(F)cc1F` it was > 50 µM (inactive); in that of `Cc1ccc(NC(=O)c2sc3ncn(CC(=O)N4CCN(c5ccccn5)CC4)c(=O)c3c2C)c(Br)c1`, 37.9 µM.

For `Nc1c(C(=O)c2cccs2)oc2nc(-c3ccccc3)cc(-c3ccco3)c12`, the IC50 is > 50 µM (inactive).

Consider `COc1cc(C(=O)OCc2csc(-c3ccccc3)n2)ccc1OCC(=O)Nc1ccc(F)cc1`, for which the IC50 was > 50 µM (inactive). In the case of `O=c1[nH]c(C2CCN(S(=O)(=O)c3ccc(S(=O)(=O)NC4CCCCC4)cc3)CC2)nc2c1nnn2Cc1c(F)cccc1Cl` it was 27.9 µM; in that of `COc1cccc(-c2cc(C(=O)N3CCN(c4ccc(N5CCOCC5)nn4)CC3)[nH]n2)c1`, > 50 µM (inactive); in that of `COc1cc(O)c2c(c1)C1=CC(=O)C(O)=C[C@]1(C)OC2=O`, 29.9 µM.

Consider `CCC(=O)Nc1cccnc1-c1ccc(C(=O)Nc2cccc(OC)c2)cc1`, for which the IC50 was > 50 µM (inactive). In the case of `Cc1cccc2sc(NC(=O)c3nnn(-c4ccc(F)cc4)n3)nc12` it was > 50 µM (inactive); in that of `COc1ccccc1CC(=O)N(C)C(c1ccccc1)c1ccccc1`, > 50 µM (inactive); in that of `O=C1N(Cc2ccc(F)cc2)CCN1c1ccc2c(c1)CCC2`, > 50 µM (inactive). In the case of `O=C(Nc1ccccc1-c1nc2ccccc2[nH]1)c1sc2ccccc2c1Cl` it was 4.1 µM; in that of `CCOC(=O)c1ccc(NC(=O)C[n+]2cc(-c3ccc(Cl)cc3)n3c2CCC3)cc1`, > 50 µM (inactive).

Regarding `C/C=C(\Cl)C1=CC(=O)[C@]23C[C@H]2[C@@]2(C)CO[C@@]1(O)[C@@]3(O)O2`, the IC50 is > 50 µM (inactive). In the case of `Cc1nc(SCC#N)c2oc3ccccc3c2n1` it was > 50 µM (inactive); in that of `NS(=O)(=O)c1ccc(Cl)c(C(=O)OCc2csc(Nc3ccccc3)n2)c1`, > 50 µM (inactive); in that of `CCCN1CCN(C(=O)c2cc(NC(=O)C3CCC3)cc3nc(C)ccc23)CC1`, > 50 µM (inactive).

For `CCN(c1ccc(NC(=O)CSc2nnc(-c3ccccc3)n2-c2ccc(OC)c(OC)c2)cc1)C(C)C`, the IC50 is 19.7 µM. In the case of `Cc1ccccc1NC(=O)C(C)n1c(=O)cc(-c2ccccc2)c2c(C)nn(C)c21` (stereo not given) it was 38 µM; in that of `Cc1ccc2c(C)nc(Nc3ncc4c(n3)CC(c3ccco3)CC4=O)nc2c1` (stereo not given), 0.168 µM. As to `COc1cc(Cl)ccc1Nc1ncc(C(=O)Nc2cc(OC)c(OC)c(OC)c2)c2ccccc12`, the IC50 was 0.121 µM. In the case of `Cc1c(-c2nnc(-c3ccccn3)o2)nnn1-c1cccc(Cl)c1` it was 48.5 µM; in that of `COc1cc(Cl)ccc1Oc1ncnc2sc(C)c(C)c12`, > 50 µM (inactive).

For `COc1ccc(C(=O)CSc2nnc(-c3cccnc3)n2-c2ccccc2)cc1`, the IC50 is > 50 µM (inactive).

Consider `COc1ccccc1CNC(=O)C1CCCN(c2nc3ccsc3c(=O)s2)C1` (stereo not given), for which the IC50 is > 50 µM (inactive). In the case of `Cc1ccc(C2c3c(-c4ccccc4O)n[nH]c3C(=O)N2Cc2ccco2)cc1` (stereo not given) it was 30.4 µM; in that of `Oc1sc(C=Nc2cc(Cl)ccc2Cl)c2ccccc12`, > 50 µM (inactive). In the case of `COc1cc(COc2ccc3c(C)c(CC(=O)N4CC[C@@]5(O)CCCC[C@H]5C4)c(=O)oc3c2C)cc(OC)c1OC` it was > 50 µM (inactive); in that of `CCC1(C)Cc2c(sc3nc(SCC(=O)Nc4ccc(C(C)=O)cc4)nc(N)c23)CO1` (stereo not given), 32.4 µM; in that of `O=C1c2ccccc2-n2c1nc1ccccc1c2=O`, > 50 µM (inactive). In the case of `COc1ccc(Nc2ncc(C(=O)Nc3ccc(Oc4ccccc4)cc3)c3ccccc23)cc1` it was > 50 µM (inactive); in that of `Cc1ccc(-n2cc3c(N4CCCC(C(=O)NCC5CCCCC5)C4)ncnc3n2)cc1` (stereo not given), > 50 µM (inactive). Consider `COc1ccc(NC2c3ccccc3C(=O)N2c2ccccn2)cc1` (stereo not given), for which the IC50 was > 50 µM (inactive).

With `Cc1noc(-c2cc(=O)n(CC(=O)NCc3ccccc3F)c3ccccc23)n1`, the IC50 was 25 µM. In the case of `CCOc1ccc(-c2nc(C#N)c(N3CCN(C(=O)c4ccccc4C)CC3)o2)cc1` it was 43.4 µM; in that of `CCCC[C@@H](C)/C=C(C)/C=C(\C)C(=O)NC1=C[C@](O)(/C=C/C=C/C=C/C(=O)NC2=C(O)CCC2=O)[C@@H]2O[C@@H]2C1=O`, 3.28 µM.
